Marks after values point to notes of the source that are not given here.
Experiments:
db/db mice [1] = test: Hepatic triglyceride, liver histology, serum ALT and ALP in high-fat diet fed db/db mice; assay type: in vivo, mouse; settings: for Hepatic triglyceride (mM/g): vehicle 148 ± 14; for Serum ALP (U/L): vehicle 129 ± 15
In short: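 High-fat diet fed db/db mice aged 8-10 weeks dosed 10 mg/kg compound once daily for 10 days. Liver sections stained with H&E and 0.3% oil red O; hepatic triglyceride measured by tissue assay kit; serum ALP and ALT activities measured by kit.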

[2] = test system: inflammatory cytokines in tissues of db/db mice; test: Inflammatory cytokine mRNA levels in tissues of high-fat diet fed db/db mice (RT-PCR); assay type: in vivo, mouse; settings: 5 mg/kg; for mRNA level of iNOS (fold), Liver tissue: vehicle 1.06 ± 0.14; for mRNA level of iNOS (fold), Colon tissue: vehicle 1.12 ± 0.23; for WAT, mRNA level (fold), IL-1β / WAT, mRNA level (fold), TNFα: white adipose tissue; for WAT, mRNA level (fold), IL-1β: vehicle 1.06 ± 0.2; for WAT, mRNA level (fold), TNFα: vehicle 1.15 ± 0.13
In short: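 Cytokine and marker transcripts (iNOS, IFNγ, TGFβ, TNFα, COX2, IL-1β, IL-6, SAA1, MIP-1α, CD36) quantified by RT-PCR in liver, kidney and white adipose tissue of high-fat diet fed db/db mice.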

[3] = test system: mice with APAP-induced liver injury; test: Acetaminophen (APAP)-induced liver injury in mouse; assay type: in vivo; settings: 5 mg/kg i.p. once daily for five days, then APAP 500 mg/kg, 8-week age mice; for ALT (U/L): serum, vehicle 786 ± 111
Excerpt: Methods: Acetaminophen (APAP)-induced liver injury in mouse is a commonly used model to study drugs protecting liver. Overdose of APAP causes liver injury by inducing the production of reactive oxygen species and reactive nitrogen species, and excessive consumption of reductive substances such as antioxidant glutathione (GSH), leading to the reduction of GSH in vivo, and the following upregulation of the activities of the aspartate aminotransferase (AST), the alanine aminotransferase (ALT) and the lactate dehydrogenase (LDH), which will result in liver inflammation and necrosis. In this example, the APAP-induced liver injury was used to detect the protection and repair functions of our compounds in liver injury.
One-year or 8-week age mice were maintained under environmentally controlled conditions with free access to standard chow diet and water. Animal experiments were conducted in the barrier facility of the Laboratory Animal Center, Xiamen University, approved by the Institutional Animal Use and Care Committee of Xiamen University, China.
Compounds were solved with DMSO and then prepared to work concentration with 40% HBC (2-hydroxypropyl-β-cyclodextrin) in which the final work concentrations of compounds are 5 mg/kg body weight, 10 mg/kg or 20 mg/kg in 100 μl injection volume and the concentration of DMSO is 10%. Compounds were intraperitoneal (i.p.) injected once daily for five days. For Feroline and Tschimganine, one-year age mice were used in the experiment. For other compounds, 8-week age mice were used. […] For Tschimganine, 20 mg/kg dose of compound was administered to mice. For other compounds, 5 mg/kg dose of compounds were administered to mice. Six hours after the fifth injection, 500 mg/kg body weight of APAP solved in PBS was i.p. injected to the mice. 24 hours later, mice were sacrificed. Part of each liver was fixed in 4% paraformaldehyde, and the liver histology characterization was analyzed by haematoxylin and eosin (H&E) staining with paraffin-embedded sections by standard procedures. Other liver tissues were collected for detecting the GSH levels, and the mRNA expression of genes involved in liver repairing, such as GPX1 and UGT1a1, by RT-PCR. The serums were collected to measure enzymes activities including AST, ALT and LDH. For the synthetic derivatives, ALT and GSH were selected as indicating markers for the function of these compounds.

SOD2 = test: mRNA level of antioxidant gene SOD2 in livers of db/db mice; assay type: in vivo, mouse; settings: 10 mg/kg, vehicle 1 ± 0.3
db/db mice [4] = test: Serum/blood metabolic parameters in high-fat diet fed db/db mice; assay type: in vivo, mouse; settings: 10 mg/kg, treat for 10 days, vehicle 527 ± 63
In short: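 db/db mice aged 8–10 weeks on high-fat diet received compounds i.p. once daily for 7, 10, 11 or 14 days, then were fasted 6 h and sacrificed. Serum glucose (glucose oxidase), insulin (ELISA), cholesterol, FFA and triglycerides measured by kits; some blood glucose by tail strips after the 6th injection and 16 h fast.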

[5] = 10 mg/kg for 10 days, vehicle 377 ± 48, Table 15
[6] = 10 mg/kg once daily for 10 days
[7] = 10 mg/kg once daily for 10 days, vehicle 377 ± 48, Table 17

SMILES	Hepatic triglyceride (mM/g) (db/db mice [1]; 10 mg/kg for 10 days)	Serum ALT (U/L) (db/db mice [1]; [5])	Serum ALP (U/L) (db/db mice [1]; [6])	Serum ALT (U/L) (db/db mice [1]; [7])	mRNA level of iNOS (fold), Liver tissue [2]	mRNA level of iNOS (fold), Colon tissue [2]	ALT (U/L) [3]	mRNA level of SOD2 (fold) (SOD2)	Serum Glucose (mg/dl) (db/db mice [4])	WAT, mRNA level (fold), IL-1β [2]	WAT, mRNA level (fold), TNFα [2]	Hepatic GSH (μM/g liver tissue) ([3]; vehicle 9.1 ± 0.5)
Nc1ccc(C(=O)OC2CCCCCCC2)cc1 [XD-16, cyclooctyl 4-aminobenzoate]	81 ± 23 ^a mM/g	104 ± 33 ^a U/L	88 ± 10^b U/L	104 ± 33^a U/L	0.39 ± 0.18^a fold	0.42 ± 0.22^a fold	127 ± 46 ^b U/L	1.5 ± 0.1 ^b fold	404 ± 46^a mg/dl			
Cc1cc(C(=O)OC2CC3CCC2(C)C3(C)C)ccc1N (stereo not drawn) [XD-4, 1,7,7-trimethyl-bicyclo[2.2.1]-heptan-2-yl 4-amino-3-methylbenzoate]					0.41 ± 0.1^a fold	0.53 ± 0.37^a fold	236 ± 65 ^a U/L	1.6 ± 0.1 ^b fold				
CC1(C)C2CCC1(C)C(OC(=O)C1CCC(O)CC1)C2 (stereo not drawn) [XD-20, 1,7,7-trimethyl-bicyclo[2.2.1]-heptan-2-yl 4-hydroxy-cyclohexane-carboxylate]	60 ± 15^b mM/g	115 ± 29 ^a U/L	73 ± 19^a U/L	115 ± 29^a U/L	0.51 ± 0.2^a fold	0.5 ± 0.18^a fold			396 ± 55^a mg/dl			
Nc1ccc(C(=O)OC2CCC3CCCCC3C2)cc1 (stereo not drawn) [XD-23, decahydro-naphthalen-2-yl 4-aminobenzoate]					0.2 ± 0.1^a fold	0.55 ± 0.29^a fold	130 ± 62 ^a U/L			0.64 ± 0.13^a fold	0.6 ± 0.21^a fold	
Cc1cc(C(=O)OC2CCCCCCC2)ccc1O [XD-17, cyclooctyl 4-hydroxy-3-methylbenzoate]			76 ± 17^a U/L	185 ± 51^a U/L			117 ± 39 ^c U/L	1.8 ± 0.3 ^a fold				
CC1(C)C2CCC1(C)C(OC(=O)c1ccc(N)cc1)C2 (stereo not drawn) [XD-5, 1,7,7-trimethyl-bicyclo[2.2.1]-heptan-2-yl 4-aminobenzoate]							197 ± 57 ^b U/L			0.33 ± 0.2^a fold	0.56 ± 0.17^a fold	12.8 ± 0.3 ^b μM/g liver tissue

— patent US20180116993A1, “MODULATORS OF FARNESOID X RECEPTOR AND METHODS FOR THE USE THEREOF” (XIAMEN UNIVERSITY, priority 2015, published 2018)
